Results taken from patent EP0359439A1, “Substituted pyridazinones” (ORION-YHTYMÄ OY, priority 1988, dated 1990).
Where “and” joins values, the source holds several entries; their conditions need not be identical. Equal values may be shown once.

The compounds below were run against Canine Cardiac Phosphodiesterase III (assay: Inhibition of Canine Cardiac Phosphodiesterase III enzyme). Settings: concentration showing 50% inhibition of Canine Cardiac Phosphodiesterase III enzyme; read-out: IC₅₀.
Format: biochemical
From the text: In Table 5 the concentration of the compounds showing 50% inhibition of Canine Cardiac Phosphodiesterase III enzyme is given.
In the case of `CC1(C)C(=O)Nc2cc3nc(-c4ccncc4)[nH]c3cc21` [BM 14.478, 5,7-Dihydro-7,7-dimethyl-2-(4-pyridinyl)-pyrrolo-(2,3-f)benzimidazol-6(1H)-one, reference compound], the IC50 is reported as 0.94 µM.
`O=C1CCC(c2ccc(N=Cc3ccc(O)cc3O)cc2)=NN1` [Compound A, 6-[4-(2,4-Dihydroxyphenyl)methyleneaminophenyl]-4,5-dihydropyridazin-3(2H)one] gave an IC50 of 1.7 µM.
`O=C1CCC(c2ccc(N=C(c3ccccc3)c3ccc(O)cc3O)cc2)=NN1` [Compound C] showed an IC50 of 0.019 µM.
In the case of `CC(=Nc1ccc(C2=NNC(=O)CC2C)cc1)c1ccc(O)cc1O` (stereo not drawn) [Compound D, 6-[4-(1-(2,4-Dihydroxyphenyl)ethylidene)aminophenyl]-4,5-dihydro-5-methylpyridazin-3(2H)one], the IC50 is reported as 0.06 µM and 0.1 µM.
With `CCC(=Nc1ccc(C2=NNC(=O)CC2)cc1)c1ccc(O)cc1O` [Compound E, 6-[4-(1-(2,4-Dihydroxyphenyl)propylidene)aminophenyl]-4,5-dihydropyridazin-3(2H)one] the IC50 was 0.39 µM.
For `O=C1CCC(c2ccc(N=Cc3c(O)ccc4ccccc34)cc2)=NN1` [Compound F, 6-[4-(2-hydroxynaphtyl)methyleneaminophenyl]-4,5-dihydropyridazin-3(2H)one], the IC50 was greater than 10 µM.
`CC(=Nc1ccc(-c2ccc(=O)[nH]n2)cc1)c1ccc(O)cc1O` [Compound H, 6-[4-(1-(2,4-Dihydroxyphenyl)ethylidene)aminophenyl]pyridazin-3(2H)one] was tested, and the IC50 was 0.14 µM.
Compound `O=C1CCC(c2ccc(N=C(CCc3ccccc3)c3ccc(O)cc3O)cc2)=NN1` [Compound L, 6-[4-(1-(2,4-dihydroxyphenyl)-3-phenylpropylidene)aminophenyl]-4,5-dihydropyridazin-3(2H)one] has an IC50 of 0.002 µM.
For `COc1ccc(-c2nc3cc(C4=NNC(=O)CC4C)ccc3[nH]2)cc1` (stereo not drawn) [Pimobendan, 4,5-Dihydro-6-(2-(4-methoxyphenyl)-1H-benzimidazol-5-yl)-5-methyl-3(2H)-pyridazinone, reference compound], the IC50 was 2 µM and 1.5 µM.
